Measurements: ChEMBL document CHEMBL3046701, “Synthesis and biological activities of some N-hydroxymethylene and N-methoxymethylene thiazines” (Med Chem Res, 2007)

What was measured:
[1] = Toxicity in po dosed Mus musculus albino (mouse); type: organism-based; details: in vivo
Penicillium [2] = assay: Antifungal activity against Penicillium inclobium at 100 ug/ml after 72 to 96 hr by disk diffusion method; type: functional; details: read-out: IZ
Staphylococcus aureus [3] = assay: Antibacterial activity against Staphylococcus aureus at 100 ug/ml after 24 hr by disk diffusion method; type: functional; details: read-out: IZ
Bacillus subtilis [4] = assay: Antibacterial activity against Bacillus subtilis at 100 ug/ml after 24 hr by disk diffusion method; type: functional; details: read-out: IZ
Escherichia coli [5] = assay: Antibacterial activity against Escherichia coli at 100 ug/ml after 24 hr by disk diffusion method; type: functional; details: read-out: IZ
Klebsiella pneumoniae [6] = assay: Antibacterial activity against Klebsiella pneumoniae at 100 ug/ml after 24 hr by disk diffusion method; type: functional; details: read-out: IZ
Aspergillus flavus [7] = assay: Antifungal activity against Aspergillus flavus at 100 ug/ml after 72 to 96 hr by disk diffusion method; type: functional; details: read-out: IZ
Penicillium [8] = assay: Antifungal activity against Penicillium inclobium at 50 ug/ml after 72 to 96 hr by disk diffusion method; type: functional; details: read-out: IZ
Staphylococcus aureus [9] = assay: Antibacterial activity against Staphylococcus aureus at 50 ug/ml after 24 hr by disk diffusion method; type: functional; details: read-out: IZ
Bacillus subtilis [10] = assay: Antibacterial activity against Bacillus subtilis at 50 ug/ml after 24 hr by disk diffusion method; type: functional; details: read-out: IZ
Escherichia coli [11] = assay: Antibacterial activity against Escherichia coli at 50 ug/ml after 24 hr by disk diffusion method; type: functional; details: read-out: IZ
Klebsiella pneumoniae [12] = assay: Antibacterial activity against Klebsiella pneumoniae at 50 ug/ml after 24 hr by disk diffusion method; type: functional; details: read-out: IZ
Aspergillus flavus [13] = assay: Antifungal activity against Aspergillus flavus at 50 ug/ml after 72 to 96 hr by disk diffusion method; type: functional; details: read-out: IZ
Penicillium [14] = assay: Antifungal activity against Penicillium inclobium at 25 ug/ml after 72 to 96 hr by disk diffusion method; type: functional; details: read-out: IZ
Staphylococcus aureus [15] = assay: Antibacterial activity against Staphylococcus aureus at 25 ug/ml after 24 hr by disk diffusion method; type: functional; details: read-out: IZ
Bacillus subtilis [16] = assay: Antibacterial activity against Bacillus subtilis at 25 ug/ml after 24 hr by disk diffusion method; type: functional; details: read-out: IZ
Escherichia coli [17] = assay: Antibacterial activity against Escherichia coli at 25 ug/ml after 24 hr by disk diffusion method; type: functional; details: read-out: IZ
Klebsiella pneumoniae [18] = assay: Antibacterial activity against Klebsiella pneumoniae at 25 ug/ml after 24 hr by disk diffusion method; type: functional; details: read-out: IZ
Aspergillus flavus [19] = assay: Antifungal activity against Aspergillus flavus at 25 ug/ml after 72 to 96 hr by disk diffusion method; type: functional; details: read-out: IZ
Aspergillus flavus [20] = assay: Antifungal activity against Aspergillus flavus after 72 to 96 hr by disk diffusion method; type: functional
Penicillium [21] = assay: Antifungal activity against Penicillium inclobium after 72 to 96 hr by disk diffusion method; type: functional
Staphylococcus aureus [22] = assay: Antibacterial activity against Staphylococcus aureus after 24 hr by disk diffusion method; type: functional
Bacillus subtilis [23] = assay: Antibacterial activity against Bacillus subtilis after 24 hr by disk diffusion method; type: functional
Escherichia coli [24] = assay: Antibacterial activity against Escherichia coli after 24 hr by disk diffusion method; type: functional
Klebsiella pneumoniae [25] = assay: Antibacterial activity against Klebsiella pneumoniae after 24 hr by disk diffusion method; type: functional

## O=S1(=O)CC(c2ccc(Cl)cc2)NC(c2ccc(Cl)cc2)C1 (stereo unspecified)
[1]
  LD50: ≤ 1000 mg/kg

## O=S1(=O)CC(c2ccc(Cl)cc2)N(CO)C(c2ccc(Cl)cc2)C1 (stereo unspecified)
[1]
  LD50: ≤ 1000 mg/kg

## COCN1C(c2ccccc2)CS(=O)(=O)CC1c1ccccc1 (stereo unspecified)
Penicillium [2]
  zone of inhibition at 100 µg/mL: 7 mm
Staphylococcus aureus [3]
  zone of inhibition at 100 µg/mL: 7 mm
Bacillus subtilis [4]
  zone of inhibition at 100 µg/mL: 6 mm
Escherichia coli [5]
  zone of inhibition at 100 µg/mL: 9 mm
Klebsiella pneumoniae [6]
  zone of inhibition at 100 µg/mL: 7 mm
Aspergillus flavus [7]
  zone of inhibition at 100 µg/mL: 6 mm

## COCN1C(c2ccc(OC)cc2)CS(=O)(=O)CC1c1ccc(OC)cc1 (stereo unspecified)
Penicillium [8]
  zone of inhibition at 50 µg/mL: 11 mm
Staphylococcus aureus [9]
  zone of inhibition at 50 µg/mL: 12 mm
Bacillus subtilis [10]
  zone of inhibition at 50 µg/mL: 12 mm
Escherichia coli [11]
  zone of inhibition at 50 µg/mL: 11 mm
Klebsiella pneumoniae [12]
  zone of inhibition at 50 µg/mL: 11 mm
Aspergillus flavus [13]
  zone of inhibition at 50 µg/mL: 10 mm

## COCN1C(c2ccc(Cl)cc2)CS(=O)(=O)CC1c1ccc(Cl)cc1 (stereo unspecified)
Penicillium [14]
  zone of inhibition at 25 µg/mL: 14 mm
Staphylococcus aureus [15]
  zone of inhibition at 25 µg/mL: 15 mm
Bacillus subtilis [16]
  zone of inhibition at 25 µg/mL: 15 mm
Escherichia coli [17]
  zone of inhibition at 25 µg/mL: 16 mm
Klebsiella pneumoniae [18]
  zone of inhibition at 25 µg/mL: 16 mm
Aspergillus flavus [19]
  zone of inhibition at 25 µg/mL: 12 mm

## COC1=CC(=O)C[C@@H](C)[C@]12Oc1c(Cl)c(OC)cc(OC)c1C2=O [GRISEOFULVIN]
Aspergillus flavus [20]
  inhibition zone (IZ): 22 mm
Penicillium [21]
  inhibition zone (IZ): 22 mm

## CCn1cc(C(=O)O)c(=O)c2cc(F)c(N3CCNCC3)cc21 [NORFLOXACIN]
Staphylococcus aureus [22]
  inhibition zone (IZ): 22 mm
Bacillus subtilis [23]
  inhibition zone (IZ): 22 mm
Escherichia coli [24]
  inhibition zone (IZ): 22 mm
Klebsiella pneumoniae [25]
  inhibition zone (IZ): 22 mm
